Patent publication US20260337212A1, “IP4-4,6 SUBSTITUTED DERIVATIVE COMPOUNDS FOR USE IN THE TREATMENT, INHIBITION OF PROGRESSION, AND PREVENTION OF ECTOPIC CALCIFICATION” (SANIFIT THERAPEUTICS, S.A., priority 2022, published 2026)
Where a name gives a salt, the structure may show the parent alone.

Assay: In vitro inhibition of calcium phosphate crystallization in human plasma (spectrophotometric)
Type: biochemical
Conditions: 0-100 μM, 1.5 mM phosphate, 12.5 mM calcium, pH 7.4, 30 min, rt, read-out: Relative Potency (EC50, inhibition of calcium phosphate crystallization)
Experimental: The in vitro efficacy of the IP4-4,6 substituted derivatives (e.g., Compounds 1 to 53) of the invention on the inhibition of calcium phosphate crystallization in human plasma samples was evaluated according to a spectrophotometric assay previously described in the art (Ferrer M, et al., Sci Rep 2017; 7:6858, doi:10.1038/s41598-017-07203-x).
A 96-well plate was employed. Plasma was spiked (1 volume of the IP4-4,6 substituted derivatives of the invention per 19 volumes of plasma) with increasing concentrations of the derivatives in the range of 0-100 μM. Plasma was then centrifuged at 10,000 g at rt and subsequently mixed with a mixture of 5 mM hydrogen phosphate and 41.67 mM calcium to attain final concentrations of 1.5 mM phosphate and 12.5 mM calcium, respectively. All reagent solutions were filtered, and pH adjusted to 7.4.
Crystallization of calcium phosphate was monitored spectrophotometrically for 30 min at rt by measuring the increments in absorbance at 550 nm using the Biotek Powerwave XS Microplate spectrophotometer (BioTek Instruments, Inc., Winooski, VT, US). The plate was incubated at rt in an orbital shaker and absorbance measured every 3 min.
Plasma crystallization was assessed based on slope measurement in the linear range between 6 and 24 min from plots of increase in absorbance versus logarithm of time. The efficacy of different myo-inositol phosphates derivatives in preventing in vitro formation of calcium phosphate crystals was assessed in human plasma samples using the slopes obtained between 6- and 24-min. Inhibition of crystallization was measured by comparing the slopes of the control sample (blank plasma) with those of samples containing the inhibitor as shown below: […]

Row | SMILES | EC50
1 | COCc1cn(CCCCOC2C(OP(=O)(O)O)C(OCCCCn3cc(COC)nn3)C(OP(=O)(O)O)C(OP(=O)(O)O)C2OP(=O)(O)O)nn1 (stereo not drawn) [Compound 37, 4,6-O-bis(4-(4-(methoxymethyl)-1H-1,2,3-triazol-1-yl)butyl)-myo-inositol-1,2,3,5-tetrakis(phosphate) octasodium salt] | 5 to 10 µM
2 | O=P(O)(O)OC1C(OCCCc2cccc(C(F)(F)F)c2)C(OP(=O)(O)O)C(OP(=O)(O)O)C(OP(=O)(O)O)C1OCCCc1cccc(C(F)(F)F)c1 (stereo not drawn) [Compound 44, 4,6-O-bis(3-(3-(trifluoromethyl)phenyl)propyl)-myo-inositol-1,2,3,5-tetrakis(phosphate) octasodium salt] | > 10 µM
3 | O=C(NCCCOC1C(OP(=O)(O)O)C(OCCCNC(=O)NC2CCCC2)C(OP(=O)(O)O)C(OP(=O)(O)O)C1OP(=O)(O)O)NC1CCCC1 (stereo not drawn) [Compound 47, 4,6-O-bis(3-(3-cyclopentylureido)propyl)-myo-inositol-1,2,3,5-tetrakis(phosphate) octasodium salt] | ≤ 5 µM
4 | CCCCCOC1C(OP(O)(O)=S)C(OCCCCC)C(OP(O)(O)=S)C(OP(O)(O)=S)C1OP(O)(O)=S (stereo not drawn) [Compound 50, 4,6-O-dipentyl-myo-inositol-1,2,3,5-tetrakis(thiophosphate) octasodium salt] | > 10 µM
5 | COCCCCCOC1C(OP(O)(O)=S)C(OCCCCCOC)C(OP(O)(O)=S)C(OP(O)(O)=S)C1OP(O)(O)=S (stereo not drawn) [Compound 51, 4,6-O-bis(5-Methoxypentyl)-myo-inositol-1,2,3,5-tetrakis(thiophosphate) octasodium salt] | > 10 µM
6 | C#CCOC1C(OP(=O)(O)O)C(OCC#C)C(OP(=O)(O)O)C(OP(=O)(O)O)C1OP(=O)(O)O (stereo not drawn) [Compound 53, 4,6-O-Dipropargyl-myo-inositol-1,2,3,5-tetrakis(phosphate) octasodium salt] | ≤ 5 µM

Next, values leading:

Row | EC50 | SMILES
7 | ≤ 5 µM | COCc1cn(CCCCCCOC2C(OP(=O)(O)O)C(OCCCCCCn3cc(C(=O)O)nn3)C(OP(=O)(O)O)C(OP(=O)(O)O)C2OP(=O)(O)O)nn1 (stereo not drawn) [Compound 41, 4-O-(6-(4-carboxy-1H-1,2,3-triazol-1-yl)hexyl)-6-O-(6-(4-(methoxymethyl)-1H-1,2,3-triazol-1-yl)hexyl)-myo-inositol-1,2,3,5-tetrakis(phosphate) nonasodium salt]
8 | 5 to 10 µM | COc1ccc(CCCOC2C(OP(=O)(O)O)C(OCCCc3ccc(OC)cc3)C(OP(=O)(O)O)C(OP(=O)(O)O)C2OP(=O)(O)O)cc1 (stereo not drawn) [Compound 43, 4,6-O-bis(3-(4-methoxyphenyl)propyl)-myo-inositol-1,2,3,5-tetrakis(phosphate) octasodium salt]
9 | > 10 µM | O=C(NCCCCCOC1C(OP(=O)(O)O)C(OCCCCCNC(=O)c2ccccc2)C(OP(=O)(O)O)C(OP(=O)(O)O)C1OP(=O)(O)O)c1ccccc1 (stereo not drawn) [Compound 48, 4,6-O-bis(5-benzamidopentyl)-myo-inositol-1,2,3,5-tetrakis(phosphate) octasodium salt]
10 | 5 to 10 µM | O=C(NCCCCCOC1C(OP(=O)(O)O)C(OCCCCCNC(=O)c2cccs2)C(OP(=O)(O)O)C(OP(=O)(O)O)C1OP(=O)(O)O)c1cccs1 (stereo not drawn) [Compound 49, 4,6-O-bis(5-(thiophene-2-carboxamido)pentyl)-myo-inositol-1,2,3,5-tetrakis(phosphate) octasodium salt]
11 | ≤ 5 µM | O=C(O)CCCOC1C(OP(=O)(O)O)C(OCCCC(=O)O)C(OP(=O)(O)O)C(OP(=O)(O)O)C1OP(=O)(O)O (stereo not drawn) [Compound 52, 4,6-O-bis(3-carboxypropyl)-myo-inositol-1,2,3,5-tetrakis(phosphate) decasodium salt]

Assay: Rat calcinosis cutis/calciphylaxis model (vitamin D3 and FeCl3): skin plaque calcification
Type: in vivo, Sprague Dawley rat
Conditions: 60 mg/kg s.c. daily D1-D8; HC (vitamin D3 50,000 IU/kg), FeCl3 0.5 mg/kg
Experimental: The dose-response efficacy of IP4-4,6 derivatives in the prevention and treatment of calcinosis cutis and calciphylaxis (CUA) induced by vitamin D3 and FeCl3 in a rat model was used. The model evaluated the effects of Compound 27 and IP6 on the formation of calcified skin plaques in rats for a duration of 8 days. Animals were sensitized at low concentration (LC, 35,000 IU/kg) and high concentration (HC, 50,000 IU/kg) doses of vitamin D3. A FeCl3 solution (0.5 mg/kg) was used as challenger to induce the formation of skin plaques. All animals were weighed every day before treatment.
Eighty-six male Sprague Dawley (SD) rats (Envigo Corp., Huntingdon, GB) weighing approximately 250-300 g were used. The animals were fed with a standard LASQCdiet® Rod14-H diet (LASvendi, Soest, DE). The animals were divided in 8 groups, 6 to 12 animals per group, as follows:
The following solutions were prepared: (a) 17,500 IU/mL (LC) and 25,000 IU/mL (HC) vitamin D3 (cholecalciferol, Duphafral D3 1000; Zoetis Inc., Parsippany, NJ, US), (b) 0.3 mg/mL FeCl3 (FeCl3·6H2O, 99%, Scharlab S. L., Barcelona, E S), (c) 30 mg/mL IP6 (660 g/mol phytic acid, pH 6.5-7.7), and (d) 15, 30, and 50 mg/mL Compound 27 (754.45 g/mol free acid, pH 6.5-7.7). All solutions were prepared in a 0.9% (w/v) physiological saline NaCl medium. An application volume of 2 mL/kg was employed.
Group 1—Control (sham), 6 animals. Animals in group 1 were administered subcutaneously physiological saline (0.9% (w/v) NaCl solution daily from D1 to D3 in the interscapular space, and with one saline 0.9% injection at each of the two ventral sites in the thorax on D4. Animals in group 1 were not administered Vit D or FeCl3 solutions.
(§1) Group 2—Physiological saline solution low concentration (Vehicle LC): Vit D 35,000 IU/kg, 0.5 mg/kg FeCl3 solution, 10 animals. Vit D at dose 35,000 IU/kg was administered subcutaneously x 3 consecutive days (D1, D2, D3), and one 0.5 mg/kg FeCl3 injection at each of the two ventral sites in the thorax on D4. This group received a daily saline 0.9% s.c. treatment (D1 to D8).
(§2) Group 3—Compound 27 60 mg/kg LC: Vit D 35,000 IU/kg, 0.5 mg/kg FeCl3, 10 animals. Vit D at dose 35,000 IU/kg was administered subcutaneously x 3 consecutive days (D1, D2, D3), and one 0.5 mg/kg FeCl3 injection at each of the two ventral sites in the thorax on D4. This group received a daily Compound 27 s.c. treatment at 60 mg/kg dose (D1 to D8).
as §1, with “4—Physiological” for “2—Physiological”, “high” for “low”, “HC):” for “LC):”, “50,000” for “35,000”, “FeCl3, 12” for “FeCl3 solution, 10”
as §2, with “5—IP6” for “3—Compound 27”, “HC,” for “LC:”, “50,000” for “35,000”, “12” for “10”, “IP6” for “Compound 27”
as §2, with “6—Compound” for “3—Compound”, “30” for “60”, “HC,” for “LC:”, “50,000” for “35,000”, “12” for “10”
as §2, with “7—Compound” for “3—Compound”, “[…],” for “LC:”, “50,000” for “35,000”, “12” for “10”
Group 8—Compound 27 100 mg/kg HC, Vit D 50,000 IU/kg, 0.5 mg/kg FeCl3, 12 animals. […]

Row | SMILES | Skin plaque % inhibition of calcification
12 | O=P(O)(O)O[C@H]1[C@H](OP(=O)(O)O)[C@@H](OP(=O)(O)O)[C@H](OP(=O)(O)O)[C@@H](OP(=O)(O)O)[C@H]1OP(=O)(O)O [IP6, phytic acid, reference compound] | 58.8 ± 14.4 %
